The values that follow come from patent US7820817B2, “Modulators of muscarinic receptors” (Vertex Pharmaceuticals Incorporated, priority 2004, dated 2010).

The subject of the experiment is at least one muscarinic receptor, M1, M2, M3, M4. In words: Muscarinic modulation activity (Table 3). On the set-up: key: +++: exhibited muscarinic modulation activity for at least one muscarinic receptor, M1, M2, M3, M4, at a concentration of less than 5 μM; ++: exhibited muscarinic modulation activity for at least one muscarinic receptor, M1, M2, M3, M4, at a concentration of between 30 μM and 5 μM; +: exhibited muscarinic modulation activity for at least one muscarinic receptor, M1, M2, M3, M4, at a concentration of greater than 30 μM; −: were not assayed or did not exhibit muscarinic modulation activity for at least one muscarinic receptor, M1, M2, M3, M4, at the concentration at which the assay was performed. Format: cell-based. To be noted: concentration at which modulation of at least one muscarinic receptor, M1, M2, M3, M4, was exhibited; CHO cells. Summed up:
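CHO cells expressing M1–M5 loaded with Fluo-3 AM or Calcium 3 dye plus 1 mM probenecid; FLIPR fluorescence read for 60 sec after compound addition (agonist mode) or after 15 min pre-incubation then carbachol at EC80 (inhibition mode); 0.5% DMSO final.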

Take `NC(=O)c1cccnc1N1CCN(C2CC3CCC2C3)CC1` (centres unmarked) [Compound 10, 2-(4-norbornan-2-ylpiperazin-1-yl)nicotinamide]: the “ACTIVITY (muscarinic modulation activity)” value (“ACTIVITY” for short) is on record as “−”. The value for `CCOC(=O)N1C2CCC1CC(N1CCC(n3nnc4ccccc43)CC1)C2` (centres unmarked) [Compound 29, 3-[4-(1H-benzotriazol-1-yl)-1-piperidyl]-8-azabicyclo[3.2.1]octane-8-carboxylic acid ethyl ester] was “+++ (exhibited muscarinic modulation activity for at least one muscarinic receptor, M1, M2, M3, M4, at a concentration of less than 5 μM)”; that for `N#Cc1cc(-c2ccccc2)nnc1N1CCN(CC2CC3CCC2C3)CC1` (centres unmarked) [Compound 59, 3-[4-(norbornan-2-ylmethyl)piperazin-1-yl]-6-phenyl-pyridazine-4-carbonitrile] was “+ (exhibited muscarinic modulation activity for at least one muscarinic receptor, M1, M2, M3, M4, at a concentration of greater than 30 μM)”. With `N#Cc1nccnc1N1CCN(CC2CC3C=CC2C3)CC1` (centres unmarked) [Compound 70, 3-[4-(5-bicyclo[2.2.1]hept-2-enylmethyl)piperazin-1-yl]pyrazine-2-carbonitrile], the “ACTIVITY” value is listed as “+++ (exhibited muscarinic modulation activity for at least one muscarinic receptor, M1, M2, M3, M4, at a concentration of less than 5 μM)”.

As to `N#Cc1ccc(C(F)(F)F)nc1N1CCN(C2CC3CCC2C3)CC1` (centres unmarked) [Compound 3, 2-(4-norbornan-2-ylpiperazin-1-yl)-6-(trifluoromethyl)nicotinonitrile], the “ACTIVITY” value is recorded as “+ (exhibited muscarinic modulation activity for at least one muscarinic receptor, M1, M2, M3, M4, at a concentration of greater than 30 μM)”. The value for `C1=CC2CC1CC2CN1CCN(c2cnccn2)CC1` (centres unmarked) [Compound 39, 2-[4-(5-bicyclo[2.2.1]hept-2-enylmethyl)piperazin-1-yl]pyrazine] was “+ (exhibited muscarinic modulation activity for at least one muscarinic receptor, M1, M2, M3, M4, at a concentration of greater than 30 μM)”. Consider `N#Cc1cccnc1N1CCN(C2C3CC4CC(C3)CC2C4)CC1` (centres unmarked) [Compound 2, 2-[4-(2-adamantyl)piperazin-1-yl]nicotinonitrile], for which the “ACTIVITY” value was “++ (exhibited muscarinic modulation activity for at least one muscarinic receptor, M1, M2, M3, M4, at a concentration of between 30 μM and 5 μM)”. `CCOC(=O)N1C2CCC1CC(N1CCN(c3ccncc3)CC1)C2` (centres unmarked) [Compound 25, 3-[4-(4-pyridyl)piperazin-1-yl]-8-azabicyclo[3.2.1]octane-8-carboxylic acid ethyl ester]: the “ACTIVITY” value was “+++ (exhibited muscarinic modulation activity for at least one muscarinic receptor, M1, M2, M3, M4, at a concentration of less than 5 μM)”.

Turning to `Cc1cnc(C)c(N2CCN(CC3CC4C=CC3C4)CC2)n1` (centres unmarked) [Compound 16, 3-[4-(5-bicyclo[2.2.1]hept-2-enylmethyl)piperazin-1-yl]-2,5-dimethyl-pyrazine], the “ACTIVITY” value was “+++ (exhibited muscarinic modulation activity for at least one muscarinic receptor, M1, M2, M3, M4, at a concentration of less than 5 μM)”.

`NC(=O)c1ccc(N2CCN(CC3CC4CCC3C4)CC2)nc1` (centres unmarked) [Compound 14, 6-[4-(norbornan-2-ylmethyl)piperazin-1-yl]nicotinamide]: the “ACTIVITY” value is “−”. With `Clc1cccc(N2CCN(CC3CC4C=CC3C4)CC2)n1` (centres unmarked) [Compound 21, 1-(5-bicyclo[2.2.1]hept-2-enylmethyl)-4-(6-chloro-2-pyridyl)-piperazine] the entry was “−”. With `FC(F)(F)c1ccc(N2CCN(CC3CC4C=CC3C4)CC2)nc1` (centres unmarked) [Compound 47, 1-(5-bicyclo[2.2.1]hept-2-enylmethyl)-4-[5-(trifluoromethyl)-2-pyridyl]-piperazine] the entry was “+ (exhibited muscarinic modulation activity for at least one muscarinic receptor, M1, M2, M3, M4, at a concentration of greater than 30 μM)”; with `c1cc(N2CCN(C3CCC4CCC3C4)CC2)ccn1` (centres unmarked) [Compound 61, 1-(2-bicyclo[3.2.1]octyl)-4-(4-pyridyl)piperazine], “−”.

Take `Cc1nccnc1N1CCN(C2CC3CCC2C3)CC1` (centres unmarked) [Compound 63, 2-methyl-3-(4-norbornan-2-ylpiperazin-1-yl)-pyrazine]: the “ACTIVITY” value was “+ (exhibited muscarinic modulation activity for at least one muscarinic receptor, M1, M2, M3, M4, at a concentration of greater than 30 μM)”. The value for `c1cc(N2CCN(C3C4CC5CC(C4)CC3C5)CC2)ccn1` (centres unmarked) [Compound 75, 1-(2-adamantyl)-4-(4-pyridyl)piperazine] was “++ (exhibited muscarinic modulation activity for at least one muscarinic receptor, M1, M2, M3, M4, at a concentration of between 30 μM and 5 μM)”; that for `CCOC(=O)N1C2CCC1CC(N1CCN(c3nc(Cl)cc(C(F)(F)F)c3C#N)CC1)C2` (centres unmarked) [Compound 58, 3-[4-[6-chloro-3-cyano-4-(trifluoromethyl)-2-pyridyl]piperazin-1-yl]-8-azabicyclo[3.2.1]octane-8-carboxylic acid ethyl ester] was “−”; that for `N#Cc1cc(-c2ccccc2)cnc1N1CCN(CC2CC3CCC2C3)CC1` (centres unmarked) [Compound 46, 2-[4-(norbornan-2-ylmethyl)piperazin-1-yl]-5-phenyl-nicotinonitrile] was “++ (exhibited muscarinic modulation activity for at least one muscarinic receptor, M1, M2, M3, M4, at a concentration of between 30 μM and 5 μM)”.
